For test [1], the target named is p45 v-abl tyrosine kinase. As to the kind of experiment: p45 v-abl kinase assay. It counts as biochemical, Abelson murine leukemia virus. The conditions noted are these: (Val^5)-angiotensin II phosphorylation; peptide 2 mM, ATP 50 μM; pH 8.0; 30° C.; triplicate; read-out: Inhibition of p45 v-abl kinase, IC50. As to the method:
p45 v-abl kinase purification
The enzyme used in our tests is the p45 v-abl tyrosine kinase which represents the catalytic domain of the Abelson tyrosine kinase (isolated from the Abelson murine leukemia virus). The p45 v-abl kinase is produced and isolated as described by Wang et al. in J.Biol.Chem. 260, 64 (1985) and by Ferguson et al. in J. Biol. Chem. 260, 3652 (1985) and in Biochem. J. 257, 321 (1989).
(Val^5)-angiotensin II phosphorylation is performed, by incubation with 40 ng of purified abl-kinase and (γ-^32 P) ATP, in 50 μl of buffer containing Tris-HCl 25 mM, pH 8.0, MgCl2 10 mM and dithiothreitol 0.1 mM (kinase buffer). The reaction mixture is incubated for the indicated time at 30° C. and the reaction stopped by adding 50 μl of 5% trichloracetic acid. After a brief incubation on ice the tubes are centrifuged. The supernatants are spotted on phosphocellulose paper squares (Whatman P-81) and washed extensively in acetic acid. The radioactivity bound to dried phosphocellulose squares is measured in a liquid scintillation counter. IC50 values are calculated from triplicated determination of each experimental point. Each inhibitor is tested at concentrations ranging from […] in the presence of fixed concentrations of peptide (2 mM) and ATP (50 μM).

The test system of test [2] is K562 cells, a human myelogenous leukemia cell line. Nature of the test: K562 cell growth inhibition assay. In kind it is cell-based. Particulars: 72 h, cell counting vs untreated control cells. How it is done: K562 cell growth inhibition assay
K562 cells, a human myelogenous leukemia cell line, were seeded into a 24 wells tissue culture plate (Falcon 3047) (10000/well) in the presence of increasing concentrations of the compounds. After 72 h, cells were harvested and were counted using a cell counter (Coulter Counter-ZM). The percent of inhibition was evaluated in respect to the untreated control cells.

A word on the IC50: it is the concentration that inhibits the measured activity by half. For `CCOC(=O)C(C)Oc1ccc(C=C2C(=O)Nc3ccccc32)c2cccnc12` (centres unmarked) [2-[5-(2-oxindol-3-ylidenemethyl)quinol-8-yloxy]propionic acid ethyl ester], the IC50 amounted to 15 µM in test [1] and 39.5 µM in test [2].
